Experimental findings from PubChem BioAssay (NCI) are described below.

The structures appear in SMILES notation.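 Briefly, cells in 96-well plates were exposed to five compound concentrations for 48 h, and endpoints were estimated by linear interpolation. TGI: total growth inhibition.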

The first assay has as its system DMS 273 small cell lung. Description: growth of human tumour cells (NCI), 48 h.
In the case of `NC1C[C@H](n2cc(/C=C/Br)c(=O)[nH]c2=O)C[C@@H]1CO` (stereo partly specified), the TGI was greater than 100 µM.

`O=c1/c(=C/c2ccccc2F)sc2nc3ccccc3n12`: the TGI is greater than 100 µM.

For `CC1=C(C)C(=O)c2c(cc3ccccn23)C1=O`, the TGI stood at 32.2 µM.

`O=C(NCCCCCCNC(=O)n1cc(F)c(=O)[nH]c1=O)NCCCOCCOCCOCCOCCOCCOCCOCCOCCOCCOCCOCCOCCOCCOCCOCCOCCOCCOCCOCCOCCOCCCNC(=O)C(O)C(O)C(O)C(O)CO` (stereo unspecified) yielded a TGI greater than 100 µM.

With `CC1SC2=NC3=C(c4ccccc4C3=O)C(c3ccc(F)cc3)N2C1=O` (stereo unspecified), the TGI was greater than 100 µM.

As to `CCCC(=O)OC1C(C(O)CO)OC2OC(C)(C)OC21` (stereo unspecified), the TGI is greater than 100 µM.

Regarding `Cc1ccc(N=Cc2ccc3c(c2)OCO3)cc1C`, the TGI was greater than 100 µM.

Compound `CC(=O)OCC1OC(OC2C(CSC3OC(COC(C)=O)C(OC(C)=O)C(OC(C)=O)C3OC(C)=O)OC(OC(C)=O)C(OC(C)=O)C2OC(C)=O)C(OC(C)=O)C(OC(C)=O)C1OC(C)=O` (stereo unspecified) came in with a TGI greater than 100 µM.

In the case of `NNC(=O)/C(=C/c1ccc(Cl)cc1Cl)NC(=O)c1ccccc1`, the TGI was greater than 100 µM.

`CC1C=C(OC(=O)c2ccccc2)C(=O)C(n2cc(F)c(=O)[nH]c2=O)O1` (stereo unspecified) yielded a TGI greater than 100 µM.

`CCc1ccccc1NC(=O)C(=O)CC(=O)c1sc(Nc2ccccc2)nc1C` yielded a TGI greater than 100 µM.

Regarding `COc1ccc(OC)c(NC(=O)C2=C(C)NC(C)=C(C(=O)Nc3cc(OC)ccc3OC)C2c2ccccc2)c1`, the TGI is greater than 100 µM.

On to `Cc1ccc(NC(=O)C(=O)C(C#N)c2ccccc2C)cc1C` (stereo unspecified), for which the TGI is greater than 100 µM.

Another assay concerns DLD-1 colon. Description: growth of human tumour cells (NCI), 48 h.
`C/C(=N\NS(=O)(=O)c1ccccc1)c1ccc(Cl)c(Cl)c1` yielded a TGI greater than 100 µM.

Take `COC(=O)C(=O)C1(CCC(C)=O)c2ccccc2-c2c(C)ccc(C)c21` (stereo unspecified): the TGI was greater than 100 µM.

Regarding `CC1(C)C(=NNC(=O)C[N+](C)(C)C)C(C)(C)C1=NNC(=O)C[N+](C)(C)C`, the TGI is greater than 100 µM.

`COc1ccc2nc(-c3cccs3)cc(C(O)CN3CCSCC3)c2c1` (stereo unspecified) showed a TGI greater than 100 µM.

In turn, `N#C/C(=C\c1ccc(O)c(O)c1)C(N)=S` displayed a TGI greater than 100 µM.

In turn, `O=C(CN1CCOCC1)Nc1nc(-c2ccc(Cl)cc2)cs1` came in with a TGI greater than 100 µM.

`COc1cc(C(=O)C/C(CCCC(=O)Nc2ccccc2[N+](=O)[O-])=N/NC(=O)c2cc3ccccc3cc2O)ccc1O` had a TGI greater than 95 µM.

With `CC(C)[C@H]1CO[C@]2(C)[C@@H]3CN(Cc4ccccc4)C[C@@H]3C(=O)N12`, the TGI is greater than 100 µM.

`CN(C)C(=O)OC(Cn1cncn1)c1ccc(Cl)cc1Cl` (stereo unspecified) displayed a TGI greater than 100 µM.

The compound `CCOC(=O)COc1ccccc1/C=C1\CCC(CN(C)C)C1=O` (stereo unspecified) registered a TGI of 12.2 µM.

Consider `Cc1c(C(=O)C/C(=N\O)C(=O)Nc2cc(Cl)c(Cl)cc2Cl)[n+](=O)c2ccccc2n1[O-]`, for which the TGI was 81.8 µM.

In turn, `CC1=Nc2ccccc2S/C1=C(/C)NNC(=O)C(N)=O` came in with a TGI greater than 100 µM.

As to `Nn1c(NNC(=O)C(=O)Nc2cc(Cl)c(Cl)cc2Cl)n[nH]c1=S`, the TGI was greater than 100 µM.

Consider `O=C(N/C(=C\c1ccc2c(c1)OCO2)c1nc2ccccc2[nH]1)c1ccccc1`, for which the TGI was greater than 100 µM.

Take `CSc1ccc(C2OC(=O)c3ccccc32)c2ccccc12` (stereo unspecified): the TGI is greater than 100 µM.

In the case of `Cc1[nH]ccc2c1[nH]c1cc(=O)ccc12`, the TGI was greater than 100 µM.

`C#CCOCn1cnc2c(Cl)ncnc21` came in with a TGI greater than 100 µM.

`NC1C[C@H](n2cc(/C=C/Br)c(=O)[nH]c2=O)C[C@@H]1CO` (stereo partly specified) had a TGI greater than 100 µM.

`O=c1/c(=C/c2ccccc2F)sc2nc3ccccc3n12` displayed a TGI greater than 100 µM.

`O=C(NCCCCCCNC(=O)n1cc(F)c(=O)[nH]c1=O)NCCCOCCOCCOCCOCCOCCOCCOCCOCCOCCOCCOCCOCCOCCOCCOCCOCCOCCOCCOCCOCCOCCCNC(=O)C(O)C(O)C(O)C(O)CO` (stereo unspecified): the TGI was greater than 100 µM.

`CC1SC2=NC3=C(c4ccccc4C3=O)C(c3ccc(F)cc3)N2C1=O` (stereo unspecified) had a TGI greater than 100 µM.

Regarding `CCCC(=O)OC1C(C(O)CO)OC2OC(C)(C)OC21` (stereo unspecified), the TGI is greater than 100 µM.

In turn, `Cc1ccc(N=Cc2ccc3c(c2)OCO3)cc1C` returned a TGI greater than 100 µM.

On to `CC(=O)OCC1OC(OC2C(CSC3OC(COC(C)=O)C(OC(C)=O)C(OC(C)=O)C3OC(C)=O)OC(OC(C)=O)C(OC(C)=O)C2OC(C)=O)C(OC(C)=O)C(OC(C)=O)C1OC(C)=O` (stereo unspecified), for which the TGI is greater than 100 µM.

Compound `NNC(=O)/C(=C/c1ccc(Cl)cc1Cl)NC(=O)c1ccccc1` yielded a TGI greater than 100 µM.

`CC1C=C(OC(=O)c2ccccc2)C(=O)C(n2cc(F)c(=O)[nH]c2=O)O1` (stereo unspecified) gave a TGI greater than 100 µM.

`CCc1ccccc1NC(=O)C(=O)CC(=O)c1sc(Nc2ccccc2)nc1C` displayed a TGI greater than 100 µM.

Take `COc1ccc(OC)c(NC(=O)C2=C(C)NC(C)=C(C(=O)Nc3cc(OC)ccc3OC)C2c2ccccc2)c1`: the TGI was greater than 100 µM.

In turn, `Cc1ccc(NC(=O)C(=O)C(C#N)c2ccccc2C)cc1C` (stereo unspecified) yielded a TGI greater than 100 µM.

Compound `Nc1ccn(CCNCCn2cnc3nc(N)[nH]c(=O)c32)c(=O)n1` had a TGI greater than 100 µM.

A further assay relates to KM20L2 colon. Description: growth of human tumour cells (NCI), 48 h.
Compound `C/C(=N\NS(=O)(=O)c1ccccc1)c1ccc(Cl)c(Cl)c1` displayed a TGI greater than 100 µM.

`COC(=O)C(=O)C1(CCC(C)=O)c2ccccc2-c2c(C)ccc(C)c21` (stereo unspecified) showed a TGI greater than 100 µM.

In the case of `CC1(C)C(=NNC(=O)C[N+](C)(C)C)C(C)(C)C1=NNC(=O)C[N+](C)(C)C`, the TGI was greater than 100 µM.

Consider `COc1ccc2nc(-c3cccs3)cc(C(O)CN3CCSCC3)c2c1` (stereo unspecified), for which the TGI came to 45.5 µM.

In turn, `N#C/C(=C\c1ccc(O)c(O)c1)C(N)=S` displayed a TGI greater than 100 µM.

`COc1cc(C(=O)C/C(CCCC(=O)Nc2ccccc2[N+](=O)[O-])=N/NC(=O)c2cc3ccccc3cc2O)ccc1O` yielded a TGI greater than 91.1 µM.

In the case of `CC(C)[C@H]1CO[C@]2(C)[C@@H]3CN(Cc4ccccc4)C[C@@H]3C(=O)N12`, the TGI was greater than 100 µM.

Consider `CN(C)C(=O)OC(Cn1cncn1)c1ccc(Cl)cc1Cl` (stereo unspecified), for which the TGI is greater than 100 µM.
